Measured values: US6683079B2, “3-(amino-or aminoalkyl) pyridinone derivatives and their use for the treatment of HIV related diseases” (Centre National de la Recherche Scientifique, priority 1998, dated 2004)

Columns and labels:
HIV-1 strain IIIB = experiment: Retrovirucidal effect on HIV-1 strain IIIB (Table 3); format: cell-based; details: pIC50=-log IC50, IC50 in M
Experimental: (§1) HIV-1 viral suspensions were obtained by coculture of MT4 cells and H9 cells chronically infected by HIV-ILai isolate. 200 μl of a cell supernatant containing viral particles (HIV-ILai: 100 TCID50) were incubated at room temperature with various concentrations of different inhibitors. After 3 hours, virions were washed through 0.02 μm anopore membrane in 1.5 mL Vectaspin tube (Whatman) for 10 minutes at 5 000 g. Each of the three subsequent washes was performed in the same conditions after the viral concentrate was refilled with 500 μL of RPMI medium. Then, the viral concentrate was readjusted to the initial volume with RPMI plus 10% foetal calf serum (FCS). The residual infectivity was assayed on P4 cells as described by CHARNEAU et al. (1994, J. Mol. Biol., 241, 651-662). Briefly, P4 cells were plated using 100 μL of DMEM medium plus 10% FCS in 96 plate multi-wells at 20×10^5 cells per mL. After overnight incubation at 37° C., the supernatant was discarded and the viral preparation (200 μL) was added. One day later the wells were washed three times in PBS. Each well was refilled with 200 μL of a reaction buffer containing 50 mM Tris-HCl pH 8.5, 100 mM 2-mercaptoethanol, 0.05% Triton X-100 and 5 mM 4-methylumbelliferyl β-D-galactopyranoside (MUG). After 3 hours at 37° C., the level of the reaction was measured in a fluorescence microplate reader.
(§2) The retrovirucidal effect of each pyridinone derivative listed in table 3 has been assayed according to the teachings of example 2, excepted that the anti-viral effect has been tested on the two following HIV-1 strains:
a) HIV-1 strain IIIB (see example 2);

HIV-1 strain 103 N = experiment: Retrovirucidal effect on HIV-1 strain 103 N (Table 3); format: cell-based; details: HIV-1 strain 103N (RT Lys-103 to Asn mutant); pIC50=-log IC50, IC50 in M
Experimental: as §1, §2
b) HIV-1 strain 103 N which is a mutant strain bearing a point mutation in the reverse transcriptase gene leading to an enzyme wherein the initial Lys-103 residue is replaced for a Asn residue.
The HIV-1 103 N strain has also been described by SAHLBERG et al.,(1998, Antiviral Res., 37 (3): ASS) and BALZARiNI et al. (1996, Antimicrobial Agents and Chemotherapy, 40 (6): 1454-1466).

Compound	HIV1 pIC50 strain IIIB (HIV-1 strain IIIB)	HIV1 pIC50 strain 103N (HIV-1 strain 103 N)
CCc1c(C)[nH]c(=O)c(N)c1CN(C)Cc1ccccc1 [Compound 97]	<4	<4
CCc1cccc(Cc2c(CC)c(C)[nH]c(=O)c2N)c1 [Compound 98]	5.358	4.978
CCc1cccc(Cc2c(CC)c(C)[nH]c(=O)c2N(C)C)c1 [Compound 99]	8.569	6.718
Cc1cc(C)cc(Cc2cc(C)[nH]c(=O)c2N)c1 [Compound 100]	4.871	<4
Cc1cc(C)cc(Cc2cc(C)[nH]c(=O)c2N(C)C)c1 [Compound 101]	6.341	4.25
CCc1c(C)[nH]c(=O)c(N(C)C)c1CN(C)Cc1ccccc1 [Compound 102]	4.369	<4
CCCc1cccc(Cc2c(CC)c(C)[nH]c(=O)c2N(C)C)c1 [Compound 104]	8	7.058
CCc1c(C)[nH]c(=O)c(N(C)C)c1Cc1cccc(OC)c1 [Compound 121]	8.469	6.948
CCc1c(C)[nH]c(=O)c(N(C)CCCCCO)c1Cc1cc(C)cc(C)c1 [Compound 123]	8.444	6.918
CCc1c(C)[nH]c(=O)c(N(C)C(C)COC)c1Cc1cc(C)cc(C)c1 (centres unmarked) [Compound 129]	8.398	7.057
CCc1c(C)[nH]c(=O)c(N(C)CCOC)c1Cc1cccc(C)c1 [Compound 136]	9	6.996
CCc1c(C)[nH]c(=S)c(N(C)C)c1C(=O)c1cc(C)cc(C)c1 [Compound 138]	8.215	7.401
CCc1c(C)[nH]c(=O)c(N(C)CCO)c1Cc1cccc(C)c1 [Compound 145]	8.42	6.028
CCc1c(C)[nH]c(=O)c(N(C)C)c1Sc1cc(C)cc(C)c1 [Compound 149]	8.959	7.883
CCc1c(C)[nH]c(=O)c(N(C)CCCCCO)c1Cc1cccc(C)c1 [Compound 154]	8.009	6.262
CCc1c(C)[nH]c(=O)c(N(C)C)c1C(=O)c1ccc(C)o1 [Compound 158]	8.041	6.625
CCc1c(C)[nH]c(=O)c(N(C)C)c1Sc1cccc(C)c1 [Compound 160]	8.678	7.177
CCc1c(C)[nH]c(=O)c(N(C)CCOC)c1Cc1cccc(C(F)(F)F)c1 [Compound 161]	7.821	5.814
CCc1c(C)[nH]c(=O)c(N(C)C)c1COc1cccc(C)c1 [Compound 162]	6.418	5.026
CCc1c(C)[nH]c(=O)c(N(C)C)c1CNc1cccc(C)c1 [Compound 163]	5.596	4.236
CCc1c(C)[nH]c(=O)c(N(C)CC=C(C)C)c1Cc1cccc(C)c1 [Compound 164]	7.818	6.505
CCc1c(C)[nH]c(=O)c(N(C)C)c1C(O)Cc1cccc(C)c1 (centres unmarked) [Compound 165]	4.354	<4
CCc1c(C)[nH]c(=O)c(N(C)C)c1CSc1cccc(C)c1 [Compound 166]	5.693	4.518
CCc1c(C)[nH]c(=O)c(N(C)C)c1CNc1ccc(C#N)cc1 [Compound 167]	6.338	5.828
CCc1c(C)[nH]c(=O)c(N)c1C(=O)c1ccc(OC)c(C)c1 [Compound 168]	4.525	4.806
CCc1c(C)[nH]c(=O)c(N(C)C)c1C(=O)c1ccc(OC)c(C)c1 [Compound 169]	7.101	5.771
CCc1c(C)[nH]c(=O)c(N(C)C)c1[S+]([O-])c1cc(C)cc(C)c1 (centres unmarked) [Compound 170]	8.553	7.224
CCc1c(C)[nH]c(=O)c(N(C)C)c1CNc1ncccn1 [Compound 171]	5.895	4.74
